Patent publication US20240417405A1, “Substituted Spiro Derivatives” (Janssen Pharmaceutica NV, priority 2021, published 2024)

Columns and labels:
[1] = test system: KO-52 cells; assay: Proliferation assay, spheroid-like growth, KO-52 (MLL wildtype control cell line); format: cell-based, human; settings: Homo sapiens, 192 h, KO-52 control cells, 8 days, confluence as measure of spheroid size; read-out: spheroid assay_OneTime KO-52 IC50
Summary of the method: (§1)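 MOLM14 (MLL-AF9) or KO-52 (MLL wildtype) cells were grown in ultra-low attachment round-bottom wells with compound (0.3% DMSO) for 8 days at 37 °C. Spheroid confluence was imaged live on day 8, normalized to DMSO and a high-dose reference/staurosporin control, and absolute IC50 fitted with variable slope.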

[2] = molecular target: T1, menin/MLL (terbium chelate-labeled menin, FITC-MBM1 peptide) (Homo sapiens, UniProt O00255, T541A); assay: Menin/MLL homogenous time-resolved fluorescence (HTRF) assay; format: binding; settings: 30 min incubation
T1 construct: Menin (a.a 1-610-6xhis tag)
T1 sequence (O00255 with tags, fused parts or gaps T541A): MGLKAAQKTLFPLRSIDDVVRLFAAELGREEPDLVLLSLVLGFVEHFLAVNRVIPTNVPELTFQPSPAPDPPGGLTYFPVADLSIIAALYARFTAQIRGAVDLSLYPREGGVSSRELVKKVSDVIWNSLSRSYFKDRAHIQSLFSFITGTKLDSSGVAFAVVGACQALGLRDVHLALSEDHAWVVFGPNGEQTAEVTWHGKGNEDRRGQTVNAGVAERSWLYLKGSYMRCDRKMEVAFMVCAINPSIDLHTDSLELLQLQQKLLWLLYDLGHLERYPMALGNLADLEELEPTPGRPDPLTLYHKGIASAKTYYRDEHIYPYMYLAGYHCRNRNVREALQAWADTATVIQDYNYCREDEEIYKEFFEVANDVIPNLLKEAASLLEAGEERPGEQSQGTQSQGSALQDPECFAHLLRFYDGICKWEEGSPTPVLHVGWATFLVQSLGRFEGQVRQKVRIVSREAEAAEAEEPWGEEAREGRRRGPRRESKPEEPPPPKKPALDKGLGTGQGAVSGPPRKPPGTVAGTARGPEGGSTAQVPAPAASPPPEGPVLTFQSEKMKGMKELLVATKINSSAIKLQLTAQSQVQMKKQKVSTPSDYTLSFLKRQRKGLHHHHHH
Summary of the method: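 Read-out: TR-FRET ratio (FITC 520 nm / terbium 490 nm, ex. 337 nm) after 15 min with 75 nM FITC-MBM1 peptide. Test compound first sat 30 min with 200 pM Tb-menin 1-610-His, 0.5% DMSO, pH 7.5 Tris buffer. IC50 by Hill fit; values under 0.1 nM reported as 0.1 nM.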

[3] = test system: MOLM14 cells; assay: Proliferation assay, spheroid-like growth, MOLM14 (MLL-AF9 rearranged); format: cell-based, human; settings: Homo sapiens, MOLM-14, 192 h, 8 days, confluence as measure of spheroid size, read-out: spheroid assay_OneTime MOLM14 IC50
Summary of the method: as §1

Row | IC50 [2] | IC50 [3] | Structure (SMILES) | IC50 [1]
1 | 0.0001 µM | 0.005 µM | CC(C)[C@@H]([C@H]1C[C@@H](N2C[C@H]3C[C@@H]2CO3)C1)N1CC2(CCN(c3ncnnc3Oc3ccc(F)cc3-c3cccnc3C3CC3)C2)C1 (single isomer, unassigned) [Compound 290] | 1.08 µM
2 | 0.0003 µM | 0.076 µM | CC(C)C([C@H]1C[C@@H](N2CCC(S(C)(=O)=O)CC2)C1)N1CC2(CCN(c3ncnnc3Oc3ccc(F)cc3-c3cncnc3C3CC3)C2)C1 (stereo partly drawn) [Compound 132] | 8.1 µM
3 | 0.0009 µM | 0.45 µM | CC(C)C([C@H]1C[C@@H](Nc2ccn(C)n2)C1)N1CC2(CCN(c3ncnnc3Oc3ccc(F)cc3-c3cncnc3C3CC3)C2)C1 (stereo partly drawn) [Compound 194] | > 15 µM
4 | 0.0003 µM | 0.016 µM | CC(C)[C@H]([C@H]1C[C@H](N2CC[C@H](F)C2)C1)N1CC2(CCN(c3ncnnc3Oc3ccc(F)cc3-c3cncnc3C3CC3)C2)C1 (single isomer, unassigned) [Compound 239] | 2.81 µM
5 | 0.0001 µM | 0.021 µM | CC(C)[C@H]([C@H]1C[C@@H](N2CCC(S(C)(=O)=O)CC2)C1)N1CC2(CCN(c3ncnnc3Oc3ccc(F)cc3-c3cncnc3C3CC3)C2)C1 (single isomer, unassigned) [Compound 9] | 7.16 µM
6 | 0.0003 µM | 0.009 µM | CC(C)[C@@H]([C@H]1C[C@@H](N2CCC(S(C)(=O)=O)CC2)C1)N1CC2(CCN(c3ncnnc3Oc3ccc(F)cc3-c3cccnc3C3CC3)C2)C1 (single isomer, unassigned) [Compound 23] | 1.06 µM
7 | 0.0232 µM | > 3.75 µM | CC(C)[C@@H](C1CC(C)(O)C1)N1CC2(CCN(c3ncnnc3Oc3ccc(F)cc3-c3cncnc3C3CC3)C2)C1 (single isomer, unassigned) [Compound 160] | > 15 µM
8 | 0.0062 µM | > 0.94 µM | CC(C)[C@@H]([C@H]1C[C@@H](N2CCC(S(C)(=O)=O)CC2)C1)N1CC2(CCN(c3ncnnc3Oc3ccc(F)cc3-c3ncccc3C3CC3)C2)C1 (single isomer, unassigned) [Compound 26] | > 15 µM
9 | 0.0002 µM | 0.004 µM | CC(C)[C@H]([C@H]1C[C@@H](N(C)CCC(=O)N(C)C)C1)N1CC2(CCN(c3ncnnc3Oc3ccc(F)cc3-c3cncnc3C3CC3)C2)C1 (single isomer, unassigned) [Compound 348] | 10.2 µM
10 | 0.0003 µM | 0.03 µM | CC(C)[C@@H]([C@H]1C[C@]2(COC(=O)N2)C1)N1CC2(CCN(c3ncnnc3Oc3ccc(F)cc3-c3ncccc3C3CC3)C2)C1 (single isomer, unassigned) [Compound 322] | > 15 µM
11 | 0.0008 µM | 0.1 µM | CC(C)C(C1CC2(CCN2CC2COC2)C1)N1CC2(CCN(c3ncnnc3Oc3ccc(F)cc3-c3cncnc3C3CC3)C2)C1 (stereo not drawn) [Compound 156] | 7.96 µM
12 | 0.0023 µM | 0.57 µM | CC(C)[C@H](C1CC2(CCN2CC2COC2)C1)N1CC2(CCN(c3ncnnc3Oc3ccc(F)cc3-c3cncnc3C3CC3)C2)C1 (single isomer, unassigned) [Compound 155] | > 15 µM
13 | 0.0002 µM | 0.073 µM | CC(=O)N1CCN([C@H]2C[C@@H]([C@H](C(C)C)N3CC4(CCN(c5ncnnc5Oc5ccc(F)cc5-c5cnncc5C5CC5)C4)C3)C2)CC1 (single isomer, unassigned) [Compound 104] | 11.8 µM
14 | 0.0001 µM | 0.014 µM | CC(C)[C@H]([C@H]1C[C@@H](N2CCC[C@H](C(=O)N(C)C)C2)C1)N1CC2(CCN(c3ncnnc3Oc3ccc(F)cc3-c3cncnc3C3CC3)C2)C1 (single isomer, unassigned) [Compound 51] | 14.4 µM
15 | 0.0004 µM | 0.15 µM | CC(C)C([C@H]1C[C@H](N2CC(O)C2)C1)N1CC2(CCN(c3ncnnc3Oc3ccc(F)cc3-c3cncnc3C3CC3)C2)C1 (stereo partly drawn) [Compound 126] | 14.9 µM
16 | 0.0003 µM | 0.28 µM | CC(C)C(C1CCN(CC2COC2)CC1)N1CC2(CCN(c3ncnnc3Oc3ccc(F)cc3-c3cncnc3C3CC3)C2)C1 (stereo not drawn) [Compound 6] | 6.47 µM
17 | 0.0023 µM | 0.41 µM | CC(C)[C@@H]([C@H]1C[C@@H](N2CCC(O)CC2)C1)N1CC2(CCN(c3ncnnc3Oc3ccc(F)cc3-c3cncnc3C3CC3)C2)C1 (single isomer, unassigned) [Compound 88] | > 15 µM
18 | 0.0001 µM | 0.009 µM | CC(=O)N1CCCC12CN([C@H]1C[C@@H]([C@@H](C(C)C)N3CC4(CCN(c5ncnnc5Oc5ccc(F)cc5-c5cncnc5C5CC5)C4)C3)C1)C2 (single isomer, unassigned) [Compound 174] | 7.4 µM
19 | 0.0008 µM | 0.2 µM | CC(=O)N1CCN([C@H]2C[C@@H](C(C(C)C)N3CC4(CCN(c5ncnnc5Oc5ccc(F)cc5-c5cncc(C#N)c5C5CC5)C4)C3)C2)CC1 (stereo partly drawn) [Compound 144] | 12.3 µM
20 | 0.0002 µM | 0.03 µM | Fc1ccc(Oc2nncnc2N2CCC3(C2)CN([C@H](C2CCN(CC4COC4)CC2)C24CC(C2)C4)C3)c(-c2cncnc2C2CC2)c1 (single isomer, unassigned) [Compound 335] | 3.24 µM
21 | 0.0001 µM | 0.005 µM | CC(C)[C@@H]([C@H]1C[C@@H](N2CC[C@@H](F)C2)C1)N1CC2(CCN(c3ncnnc3Oc3ccc(F)cc3-c3nnccc3C3CC3)C2)C1 (single isomer, unassigned) [Compound 262] | 1.28 µM
22 | 0.0001 µM | < 0.002 µM | CC(C)[C@H]([C@H]1C[C@@H](N2C[C@H]3COC[C@H]3C2)C1)N1CC2(CCN(c3ncnnc3Oc3ccc(F)cc3-c3ncccc3C3CC3)C2)C1 (single isomer, unassigned) [Compound 149] | 0.51 µM
23 | 0.0001 µM | 0.007 µM | CC(C)[C@@H]([C@H]1C[C@@H](N2CCN(C(=O)N(C)C)CC2)C1)N1CC2(CCN(c3ncnnc3Oc3ccc(F)cc3-c3cccnc3C3CC3)C2)C1 (single isomer, unassigned) [Compound 92] | 0.78 µM
24 | 0.0001 µM | 0.007 µM | CC(C)[C@H]([C@H]1C[C@@H](N2CC[C@]3(CCN(C)C3=O)C2)C1)N1CC2(CCN(c3ncnnc3Oc3ccc(F)cc3-c3cncnc3C3CC3)C2)C1 (single isomer, unassigned) [Compound 67] | > 15 µM
25 | 0.0002 µM | 0.049 µM | CC(C)[C@H]([C@H]1C[C@H](N2CC3(COC3)C2)C1)N1CC2(CCN(c3ncnnc3Oc3ccc(F)cc3-c3ncccc3C3CC3)C2)C1 (single isomer, unassigned) [Compound 152] | 3.96 µM
26 | 0.0001 µM | 0.021 µM | CC(C)C([C@H]1C[C@@H](NCC(C)(C)O)C1)N1CC2(CCN(c3ncnnc3Oc3ccc(F)cc3-c3cncnc3C3CC3)C2)C1 (stereo partly drawn) [Compound 133] | 7.38 µM
